The term Ki denotes a dissociation constant, usually derived from enzyme kinetics or from competition with a known ligand. A high value points to lower affinity. One may read the AUC(0-t) as exposure summed from dosing to a finite time, without extrapolation to infinity. As a reminder, the Cmax is the peak of the concentration-time curve. As a reminder, the Tmax is the time at which the peak concentration occurs.

Read-outs that look alike come from different tables or passages of the source.

Series [1] relates to 5-HT2 receptor. Nature of the series: DOI-induced head twitch test in mice. In kind it is in vivo. Particulars: oral. The text has this:
When administered to mice, it produces a behavioral profile associated with frequent head twitches. The frequency of these head twitches during a predetermined period of time can be taken as an estimate of 5-HT2 receptor agonism in the brain. Conversely, this behavioral assay can be used to determine 5-HT2 receptor antagonism in the brain by administering the DOI with or without an antagonist and recording the reduction in DOI-induced head twitches after the administration of the antagonist.
The method of Darmani et al., Pharmacol Biochem Behav. (1990) 36:901-906 (the contents of which are incorporated by reference in their entirety) is used with some modifications. (±)-DOI HCl is injected subcutaneously and the mice are immediately placed in a conventional plastic cage. The number of head twitches is counted during 6 min, beginning 1 min after DOI administration. The compound of Example 1 is administered orally 0.5 hr before the injection of DOI.

Series [2] deals with T1, serotonin reuptake transport (SERT) (Homo sapiens, UniProt P31645).
T1 construct: endogenous in cells; host or cells: human platelets
T1 sequence (P31645 whole entry): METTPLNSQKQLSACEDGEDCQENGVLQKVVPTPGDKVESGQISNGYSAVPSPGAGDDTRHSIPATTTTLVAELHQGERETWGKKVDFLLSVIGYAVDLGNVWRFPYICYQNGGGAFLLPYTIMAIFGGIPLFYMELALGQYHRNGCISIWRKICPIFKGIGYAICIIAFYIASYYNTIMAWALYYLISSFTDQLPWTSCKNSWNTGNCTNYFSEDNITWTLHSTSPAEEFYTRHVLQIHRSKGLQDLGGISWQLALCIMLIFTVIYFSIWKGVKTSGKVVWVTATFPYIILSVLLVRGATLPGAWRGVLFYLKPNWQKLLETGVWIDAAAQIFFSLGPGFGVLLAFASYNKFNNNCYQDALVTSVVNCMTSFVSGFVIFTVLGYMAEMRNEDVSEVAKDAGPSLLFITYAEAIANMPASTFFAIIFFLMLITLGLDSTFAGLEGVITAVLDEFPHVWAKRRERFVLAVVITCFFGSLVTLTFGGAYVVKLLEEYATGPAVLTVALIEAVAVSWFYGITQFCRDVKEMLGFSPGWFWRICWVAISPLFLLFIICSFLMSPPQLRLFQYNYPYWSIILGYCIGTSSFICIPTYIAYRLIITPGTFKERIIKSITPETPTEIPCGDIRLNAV
Nature of the series: Inhibition of serotonin uptake in a human platelet assay using tritiated serotonin. Format: cell-based.

Series [3] has as its system dopamine receptors. Nature of the series: Step-down latency test. The settings on record: mice; oral; tests at 120, 180, 240 and 360 minutes; FIG. 2. Format: in vivo. As to the method:
Drugs that antagonize dopamine receptors in the brain slow motor behavior and can induce a cataleptic state. This activity can be assessed in mice using a simple step down latency test. In this test, mice are held by the tail, and the rodents forepaws are placed on a rod and its hindpaws placed on the bench top. The time for forepaws to step down from the rod is then measured. A maximum of 2 min is allowed at which time the animal is taken away from the rod and returned to the home cage. The compound of Example 1 or haloperidol (used as a positive control) is administered orally 120 minutes before the first test. Step down latency tests are conducted at 120, 180, 240, and 360 minutes after the administration of the compound of Example 1 or haloperidol. After each test mice are returned to their cages. The results are show in FIG. 2.

Series [4] is described as follows: Hydrolysis of Example 4 in EDTA-containing rat whole blood. In kind it is in vitro ADME. Particulars: for Concentration: Example 4 incubated in rat whole blood at 37 degrees, HPLC-MS.
Series [5] in a line: Single dose oral bioavailability and pharmacokinetic study in Sprague Dawley rats. Particulars: for AUC(0-t) / Cmax / Tmax / half-life: Sprague Dawley (Crl:CD(SD)BR), rat, plasma, mean, after single oral 30 mg/kg of Example 1, label = analyte; for half-life: read-out: t½ (converted); for Course of plasma concentration over time: rats, after oral Example 1, 30 mg/kg, over 8 hours. Format: in vivo, Sprague Dawley rat. On the procedure:
Animals are Used for the Study:
• Strain/Species: Sprague Dawley (Crl:CD®(SD)BR) Rat • Sex: Male and Female • Age at Receipt: 7-8 weeks • Weight Range: 225-300 g • Number of Animals on Study: 3 Males and 3 Females Preparation of Dosage Formulation
The suspension is prepared by placing the required amount of methylcellulose in deionized water in a glass container. The suspension are kept stirring with a magnetic stirrer until completion of daily dosing. The dose suspensions are prepared on the day of dosing for each test article group.
A total of 3 male and 3 female rats are dosed at 30 mg/kg. Blood samples are collected at 0.30 min, 1, 4 and 8 h after dosing. Plasma samples are analyzed to determine plasma concentrations of the Compound of Example 1, the Compound of Formula Q wherein X is —N(CH3)— and Y is —C(═O), and the Compound of Formula Q wherein X is —N(H)— and Y is —C(═O). The pharmacokinetic profile is determined using WinNonlin.
Animals are anesthetized with isoflurane, and whole blood (˜0.5 mL/time point) is collected from the orbital sinus utilizing a glass capillary tube on the first day of treatment at the following times: 0.30 min, 1, 4 and 8 h after dosing. Whole blood (˜0.5 mL) is collected into chilled plastic tubes containing sodium heparin as supplied by the manufacturer. The blood collection tubes are mixed several times by manual inversion or gentle vortexing and stored on wet ice until centrifugation. The blood is centrifuged (˜2700 g, ˜10 min, ˜5° C.). Plasma is transferred with disposable plastic pipettes to plastic vials and stored at approximately −70° C. until analyzed.

Series [6] deals with SERT (Homo sapiens, UniProt P31645). In words: biochemical.
Chain of SERT (P31645 whole entry): as above

For `CN1CCN2c3c(cccc31)[C@@H]1CN(CCCC(O)c3ccc(F)cc3)CC[C@@H]12` (stereo partly shown) [Example 1], the “IC50 for reducing DOI-induced head twitches” value in series [1] (0.5 hr before DOI, twitches counted during 6 min) is given as 0.31 mg/kg. Also, the “Effect on DOI-induced head twitches” value in series [1] (before DOI, FIG. 1) was “significantly and dose dependently reduced head twitches”. Moreover, the inhibition constant Ki in series [2] amounted to 1.5 µM; in series [6], 0.071 µM. Moreover, the SERT inhibitory activity result in series [2] (imipramine as reference, compared with the corresponding keto compound of Formula Q) is “potent SERT inhibitory activity”. In addition, the “Effect on step down latency” value in series [3] was “significantly and dose dependently increased step down latency”. Further, the Concentration in series [4] (5 min) is 8.43 µM; in series [4] (10 min), 12.02 µM; in series [4] (15 min), 13.42 µM; in series [4] (30 min) it was 19.21 µM; in series [4] (60 min), 24.66 µM; in series [4] (90 min) it was 33.31 µM. For the same compound, the exposure AUC(0-t) in series [5] (female rats) was determined as 767 ng·h/mL; in series [5] (male rats), 421 ng·h/mL. The Cmax in series [5] (female rats) was 144 ng/mL; in series [5] (male rats) it was 91.6 ng/mL. Besides, the time to peak (Tmax) in series [5] (female rats) turned out to be 3.33 h; in series [5] (male rats), 0.83 h. Further, the figures for the half-life in series [5] (female rats) and in series [5] (male rats) were 11.6 h and 5.83 h, respectively. In series [5], the “Course of plasma concentration over time” value is recorded as “generally decreases over time”.
Turning to `CN1CCN2c3c(cccc31)[C@@H]1CN(CCCC(=O)c3ccc(F)cc3)CC[C@@H]12`, in series [5] (female rats), the AUC(0-t) worked out at 71 ng·h/mL, the concentration peaked (Cmax) at 11.8 ng/mL, the Tmax was found to be 1 h and the half-life is 23.4 h. In series [5] (male rats), the AUC(0-t) is 54.5 ng·h/mL, the highest level (Cmax) was 4.85 ng/mL, the time of peak concentration (Tmax) came out at 0.75 h and the half-life is 12.1 h. Moreover, the “Course of plasma concentration over time” value in series [5] is given as “maintained over 8 hours”.
Consider `O=C(CCCN1CC[C@H]2[C@@H](C1)c1cccc3c1N2CCN3)c1ccc(F)cc1`, for which, in series [5] (female rats), the area under the curve AUC(0-t) worked out at 89.7 ng·h/mL, the Cmax came out at 12.8 ng/mL and the Tmax turned out to be 5.33 h. Also, in series [5] (male rats), the AUC(0-t) worked out at 37.4 ng·h/mL, the Cmax was 5.84 ng/mL, the time of peak concentration (Tmax) came to 1 h and the half-life is 17.8 h. Moreover, in series [5], the “Course of plasma concentration over time” value was “maintained over 8 hours”.
For the compound `CCCC(=O)OC(CCCN1CC[C@H]2[C@@H](C1)c1cccc3c1N2CCN3C)c1ccc(F)cc1` (stereo partly shown) [Example 4], the Concentration in series [4] (0 min) was determined as 52.84 µM; in series [4] (5 min), 24.92 µM; in series [4] (10 min), 18.51 µM; in series [4] (15 min) it was 9.21 µM; in series [4] (30 min), 7.06 µM; in series [4] (60 min), 2.74 µM. Further, the Concentration in series [4] (90 min) was 1.75 µM. The “Cleavage of the ester in blood” value in series [4] (rat whole blood, during 90 minutes) is reported as “steadily cleaved back to the compound of Example 1”.

Source of the values: patent US9371324B2, “Substituted pyrido[3′,4′:4,5]pyrrolo[1,2,3-de]quinoxalines for the treatment of nervous system disorders” (INTRA-CELLULAR THERAPIES, INC., priority 2010, dated 2016).
